# Test results: US11944600B2, “Use of cannabinoids in the treatment of a neurodegenerative disease or disorder” (priority 2017, dated 2024)
# Experiments:
# ALS patients = conditions: in some patients; cited from earlier work
# [1] = test system: mSOD1-transgenic (G93A) mice; experiment: Rotarod performance in SOD-1 transgenic mice; assay type: in vivo, mouse; conditions: SOD-1 transgenic male mice, treated from 10 to 21 weeks of age; BDS 10 mg/kg i.p., olesoxime 3 mg/kg s.c., FIG. 7
# Protocol: (§1) A transgenic mouse model of ALS, SOD1, was used to determine the effects of the combined treatment of a drug used in the treatment of ALS, olesoxime, with THC.
# (§2) mSOD1-transgenic (G93A) and wild-type mice were subjected to genotyping to identify the presence of mutant SOD-1. These mice were used for chronic treatment (from 10 weeks of age up to the age of 21 weeks) with test article or vehicle.
# (§3) All studies were conducted in male mice (n=6-8 subjects in each experimental group).
# (§4) The treatment groups were as follows: THC-BDS (10 mg/kg; i.p.); CBD-BDS (10 mg/kg; i.p); olesoxime (3 mg/kg; s.c.); a combination of THC-BDS and olesoxime; and vehicle. A group of wild-type animals were also treated with vehicle.
# (§5) Animals were recorded for neurological decline by testing rotarod performance during the whole treatment period. Animals were recorded for neurological decline (using a previously published ALS-related neurological scale; de Munck et al., 2013).
# (§6) Data were assessed using one-way (immunostaining data) or two-way (rotarod data) ANOVA followed by an appropriate post-hoc test (Student Newman-Keuls for immunostaining data, and Bonferroni for behavioural data) significance was reported at p≤0.05. Data shown in the figures represent “p<0.01, ***p<0.001
# [2] = test system: mSOD1-transgenic (G93A) mice; experiment: Neurological score in SOD-1 transgenic mice; assay type: in vivo, mouse; conditions: SOD-1 mutant male mice, treated from 10 to 21 weeks of age; BDS 10 mg/kg i.p., olesoxime 3 mg/kg s.c., FIG. 8
# Protocol: as §1, §2, §3, §4, §5, §6
# [3] = test system: mSOD1-transgenic (G93A) mice; experiment: Nissl-stained motor neurons in ventral horn of spinal cord in SOD-1 transgenic mice; assay type: in vivo, mouse; conditions: SOD-1 mutant male mice vs vehicle-treated mutant mice; BDS 10 mg/kg i.p., olesoxime 3 mg/kg s.c., 10 to 21 weeks of age, FIG. 9
# Protocol: as §1, §2, §3, §4
# (§7) Animals were euthanized at the end of the treatment period and their spinal cords collected for biochemical and histopathological analyses.
# as §6
# The number of motor neurons in the ventral horn of the spinal cord was quantified using Nissl staining.
# [4] = test system: experimental model of ALS; conditions: prior art statement; cited from earlier work
# TDP-43 transgenic mice [5] = experiment: Nissl-stained spinal motor neurons in TDP-43 transgenic mouse model of ALS; assay type: in vivo; conditions: TDP-43 transgenic male mice, 10 mg/kg/day i.p. from 60 to 90 days of age, vs vehicle (p<0.05), FIG. 1
# Protocol: (§8) A transgenic mouse model of ALS, TDP-43, was used to determine the effects of the cannabinoids in treatment of symptoms of ALS.
# (§9) The TDP-43 transgenic and wild-type mice were subjected to genotyping to identify the presence of mutant TDP-43 gene. These mice were used for a chronic i.p. treatment (from 60 days of age up to the age of 90 days) with cannabinoid or vehicle.
# as §3
# (§10) The neuroprotective effects of 2 different phytocannabinoids (CBDV and CBDA) were investigated. The cannabinoids were administered at a dose of 10 mg/kg/day.
# as §7
# (§11) Data were assessed using one-way (immunostaining data) or two-way (rotarod data) ANOVA followed by an appropriate post-hoc test (Student Newman-Keuls for immunostaining data, and Bonferroni for behavioural data) significance was reported at p≤0.05. Data shown in the figures represent “p<0.01, ***p<0.001.
# TDP-43 transgenic mice [6] = experiment: GFAP immunostaining of spinal cord astrocytes in TDP-43 transgenic mice; assay type: in vivo, mouse; conditions: TDP-43 transgenic male mice, 10 mg/kg/day i.p. from 60 to 90 days of age, FIG. 2
# Protocol: as §8, §9, §3, §10, §7, §11
# The reduction of spinal motor neurons in TDP-43 transgenic mice was associated with an elevation in the number of astrocytes labelled with Glial fibrillary acidic protein (GFAP) immunostaining, in particular activated astrocytes identified by analysis of their morphological characteristics (e.g. increased cell shape and size, reduction in the length of processes).
# TDP-43 transgenic mice [7] = experiment: lba-1 immunostaining of spinal cord microglial cells in TDP-43 transgenic mice; assay type: in vivo, mouse; conditions: TDP-43 transgenic male mice, 10 mg/kg/day i.p. from 60 to 90 days of age, FIG. 3
# Protocol: as §8, §9, §3, §10, §7
# Data were assessed using one-way (immunostaining data) or two-way (rotarod data) ANOVA followed by an appropriate post-hoc test (Student Newman-Keuls for immunostaining data, and Bonferroni for behavioural data) significance was reported at p≤0.05. […]
# The number of microglial cells in the spinal cord was quantified using lba-1 immunostaining, and again differentiating resting and activated cells through the analysis of their morphological characteristics (e.g. cell shape and size, type of processes). […] This was also seen when the ratio between cell body area and cell process length was calculated.
# TDP-43 transgenic mice [8] = experiment: Rotarod test in TDP-43 transgenic mice; assay type: in vivo, mouse; conditions: 10 mg/kg/day i.p.; for motor performance on rotarod compared to wild type: vs wild type
# Protocol: as §8, §9, §3, §10
# (§12) Animals were recorded for neurological decline by testing rotarod performance and observing limb clasping during the whole treatment period. The weight of the animals was also recorded during the treatment period.
# as §11
# The rotarod test was utilised to quantify the muscle weakness characteristic of TDP-43 transgenic mice.
# TDP-43 transgenic mice [9] = experiment: Limb clasping in TDP-43 transgenic mice; assay type: in vivo, mouse; conditions: TDP-43 transgenic male mice, 10 mg/kg/day i.p., FIG. 5
# Protocol: as §8, §9, §3, §10, §12, §11
# TDP-43 transgenic mice [10] = experiment: Weight gain in TDP-43 transgenic mice; assay type: in vivo, mouse; conditions: TDP-43 transgenic male mice, 10 mg/kg/day i.p., FIG. 6A/6B
# Protocol: as §8, §9, §3, §10, §12
# The weight gain of animals was also monitored, this is a variable which is frequently used to monitor disease progression in animal models of ALS.
# patients with ALS = conditions: 27 patients with ALS, 5 mg of THC twice daily; cited from earlier work
smiles,measurement,setting,value
Nc1nc2ccc(OC(F)(F)F)cc2s1 [riluzole],onset of ventilator-dependence or tracheostomy,ALS patients,delays
CC(C)CCC[C@@H](C)[C@H]1CC[C@H]2[C@@H]3CCC4=CC(=NO)CC[C@]4(C)[C@H]3CC[C@]12C [olesoxime],rotarod performance (time spent on the rod),[1],able to attenuate the effect
same,elevated Neurological Score (neurological decline),[2],non-significant trends towards a reduced score
same,number of Nissl-stained motor neurons in the ventral horn of the spinal cord,[3],statistically significant
"CCCCCc1cc(O)c2c(c1)OC(C)(C)c1ccc(C)cc1-2 [CBN, cannabinol, reference compound]",neuroprotection in an experimental model of ALS,[4],neuroprotective
"CCCCCc1cc(O)c2c(c1)OC(C)(C)[C@@H]1CCC(C)=C[C@@H]21 [THC, Tetrahydrocannabinol]",neuroprotection in an experimental model of ALS,[4],neuroprotective
"C=C(C)[C@@H]1CCC(C)=C[C@H]1c1c(O)cc(CCCCC)c(C(=O)O)c1O [CBDA, Cannabidiolic acid]",loss of Nissl-stained motor neurons in the spinal cord,TDP-43 transgenic mice [5],almost completely recovered
same,ratio between cell body area and process length (GFAP-labelled astrocytes),TDP-43 transgenic mice [6],reduced
same,total immunoreactivity for GFAP,TDP-43 transgenic mice [6],reduced
same,"lba-1 immunostaining changes (cell bodies, cell processes, ratio), all parameters",TDP-43 transgenic mice [7],reversed the changes
same,performance on the rotarod compared to vehicle,"TDP-43 transgenic mice [8]; TDP-43 mice at 12 weeks of age, vs vehicle",significantly superior performance
same,motor performance on rotarod compared to wild type,TDP-43 transgenic mice [8]; TDP-43 mice at 12 weeks of age,significantly impaired
same,rotarod performance (latency to fall) during disease progression,"TDP-43 transgenic mice [8]; TDP-43 transgenic male mice, even at advanced stages of the disease, FIG. 4",attenuated the rotarod worsening
same,increase in limb clasping,TDP-43 transgenic mice [9],strongly and significantly attenuated
same,marked weight loss (weight gain monitoring),TDP-43 transgenic mice [10],prevent
CCCCCc1cc(O)c2c(c1)OC(C)(C)[C@@H]1CCC(C)=C[C@@H]21 [dronabinol],effect on the cramps associated with ALS,patients with ALS,failed to have a significant effect
"C=C(C)[C@@H]1CCC(C)=C[C@H]1c1c(O)cc(CCC)cc1O [CBDV, Cannabidivarin]",loss of Nissl-stained motor neurons in the spinal cord,TDP-43 transgenic mice [5],almost completely recovered
same,ratio between cell body area and process length (GFAP-labelled astrocytes),TDP-43 transgenic mice [6],reduced
same,total immunoreactivity for GFAP,TDP-43 transgenic mice [6],reduced
same,"lba-1 immunostaining changes (cell bodies, cell processes, ratio), all parameters",TDP-43 transgenic mice [7],reversed the changes
same,motor performance on rotarod compared to wild type,TDP-43 transgenic mice [8]; TDP-43 mice at 12 weeks of age,significantly impaired
same,marked weight loss (weight gain monitoring),TDP-43 transgenic mice [10],reduce
